Results published in patent US10626103B2, “Inhibitor of lysine specific demethylase-1” (CELGENE QUANTICEL RESEARCH, INC., priority 2014, dated 2020).

What was measured:
[1] = test system: Kasumi-1 AML cancer cell line; assay: Kasumi-1 AML cell line proliferation assay (Cell-MTS assay); format: cell-based; settings: Homo sapiens, Kasumi-1 cells, 168 hours
From the text: Colorimetric cellular assay to assess the ability of LSD-1 small molecule inhibitors to effect the proliferation of the established AML cancer cell line Kasumi-1.
This Cell-MTS assay is a 7-day plate based colorimetric assay which quantifies the amount of newly generated NADH in the presence and absence of test compound. These NADH levels are used as a proxy for the quantification of cancer cell proliferation.
The established cancer cell line Kasumi-1 with a verified p53 mutation were purchased from American Type Culture Collection (ATCC) and routinely passaged according to ATCC published protocols. For routine assay these cells were seeded at a density of 20,000 cells per 96-well. 24 hours after plating, cells received an 11 point dilution of test compound with final concentration ranges from 100 LM to 2.0 nM. Cells are incubated in the presence of compound for 168 hours at 37° C., 5% CO2. At the end of this compound incubation period, 80 μl of media is removed and 20 μL of CellTiter 96® AQueous Non-Radioactive Cell Proliferation Assay solution (Promega) is added. The cells are incubated until the OD490 is >0.6. IC50 values are calculated using the IDBS XLfit software package and include background subtracted OD490 values and normalization to DMSO controls.
Table 5 provides the Kasumi-1 cellular IC50 values of various substituted heterocyclic compounds disclosed herein.

[2] = target: full-length human LSD1 (Homo sapiens (Human), UniProt O60341); assay: In vitro enzyme inhibition assay LSD-1 (TR-FRET); format: biochemical; settings: H3K4me1-biotin peptide
How it was run: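 Demethylase activity of full-length human LSD1 was detected by TR-FRET after 1 hour incubation at room temperature. Excitation was at 320 nm, with emission at 615 nm and 665 nm. IC50 values were derived from the inhibition data.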

[3] = test system: CD11b expression in THP-1 (AML) cells; assay: LSD1 CD11b cellular assay (flow cytometry); format: cell-based; settings: Homo sapiens, 96 h, THP-1 cells, 4 days
How it was run: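 THP-1 cells were exposed to serially diluted compounds (0.2% DMSO final) for 4 days at 37 °C. CD11b expression was measured by flow cytometry with DAPI staining. The percent of CD11b-positive cells per concentration gave the IC50 curve.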

## COc1ccc(-n2c(-c3ccc(C#N)c(F)c3)nc(C(=O)N3CCC[C@@H](N)C3)c2C)cc1 [Example 12, 4-[4-[(3R)-3-aminopiperidine-1-carbonyl]-1-(4-methoxyphenyl)-5-methylimidazol-2-yl]-2-fluorobenzonitrile]
[1]
  IC50: ≤ 100 nM

## COc1ccc(-n2c(-c3ccc(C#N)c(F)c3)nc(C(=O)N3CC[C@H](N)C3)c2C)cc1 [Example 14, 4-[4-[(3S)-3-aminopyrrolidine-1-carbonyl]-1-(4-methoxyphenyl)-5-methylimidazol-2-yl]-2-fluorobenzonitrile]
[1]
  IC50: ≤ 100 nM
[2]
  IC50: < 100 nM
[3]
  IC50: < 100 nM

## COc1ccc(-n2c(-c3ccc(C#N)c(F)c3)nc(C(=O)N3CCC[C@@H](N)C3)c2C)cc1F [Example 16, 4-[4-[(3R)-3-aminopiperidine-1-carbonyl]-1-(3-fluoro-4-methoxyphenyl)-5-methylimidazol-2-yl]-2-fluorobenzonitrile]
[1]
  IC50: ≤ 100 nM

## COc1ccc(-n2c(-c3ccc(C#N)c(F)c3)nc(C(=O)N3CC[C@H](N)C3)c2C)cc1F [Example 18, 4-[4-[(3S)-3-aminopyrrolidine-1-carbonyl]-1-(3-fluoro-4-methoxyphenyl)-5-methylimidazol-2-yl]-2-fluorobenzonitrile]
[1]
  IC50: ≤ 100 nM

## CN[C@H]1CCN(C(=O)c2nc(-c3ccc(C#N)c(F)c3)n(-c3ccc(OC)c(F)c3)c2C)C1 [Example 64, 2-Fluoro-4-[1-(3-fluoro-4-methoxyphenyl)-5-methyl-4-[(3S)-3-(methylamino)pyrrolidine-1-carbonyl]imidazol-2-yl]benzonitrile]
[1]
  IC50: ≤ 100 nM
[2]
  IC50: < 100 nM
[3]
  IC50: < 100 nM

## COc1ccc(-n2c(-c3ccc(C#N)c(F)c3)nc(C(=O)N3CCC[C@@H](N)C3)c2F)cc1F [Example 67, 4-[4-[(3R)-3-Aminopiperidine-1-carbonyl]-5-fluoro-1-(3-fluoro-4-methoxyphenyl)imidazol-2-yl]-2-fluorobenzonitrile]
[1]
  IC50: ≤ 100 nM
[2]
  IC50: < 100 nM
[3]
  IC50: < 100 nM

## CN[C@@H]1CCCN(C(=O)c2nc(-c3ccc(C#N)c(F)c3)n(-c3ccc(OC)cc3)c2C)C1 [Example 70, 2-Fluoro-4-[1-(4-methoxyphenyl)-5-methyl-4-[(3R)-3-(methylamino)piperidine-1-carbonyl]imidazol-2-yl]benzonitrile]
[1]
  IC50: ≤ 100 nM
[2]
  IC50: < 100 nM
[3]
  IC50: < 100 nM

## Cn1nc2ccc(-n3c(-c4ccc(C#N)c(F)c4)nc(C(=O)N4CCC[C@@H](N)C4)c3Cl)cc2c1Cl [Example 76, 4-[4-[(3R)-3-Aminopiperidine-1-carbonyl]-5-chloro-1-(3-chloro-2-methylindazol-5-yl)imidazol-2-yl]-2-fluorobenzonitrile]
[1]
  IC50: ≤ 100 nM
[2]
  IC50: < 100 nM
[3]
  IC50: < 100 nM

## COc1ccc(-n2c(-c3ccc(C#N)c(F)c3)nc(C(=O)N3CC(CN)C3)c2C)cc1F [Example 88, 4-[4-[3-(Aminomethyl)azetidine-1-carbonyl]-1-(3-fluoro-4-methoxyphenyl)-5-methylimidazol-2-yl]-2-fluorobenzonitrile]
[1]
  IC50: ≤ 100 nM

## Cc1c(C(=O)N2CC[C@H](N(C)C)C2)nc(-c2ccc(C#N)c(F)c2)n1-c1ccc2nn(C)cc2c1 [Example 94, 4-[4-[(3S)-3-(Dimethylamino)pyrrolidine-1-carbonyl]-5-methyl-1-(2-methylindazol-5-yl)imidazol-2-yl]-2-fluorobenzonitrile]
[1]
  IC50: ≤ 100 nM

## Cc1c(C(=O)N2CC[C@H](N(C)C)C2)nc(-c2ccc(C#N)c(F)c2)n1-c1ccc2nn(C)c(Cl)c2c1 [Example 96, 4-[1-(3-Chloro-2-methylindazol-5-yl)-4-[(3S)-3-(dimethylamino)pyrrolidine-1-carbonyl]-5-methylimidazol-2-yl]-2-fluorobenzonitrile]
[1]
  IC50: ≤ 100 nM
[2]
  IC50: < 100 nM
[3]
  IC50: < 100 nM

## CN[C@@H]1CCCN(C(=O)c2nc(-c3ccc(C#N)c(F)c3)n(-c3ccc4nn(C)c(C)c4c3)c2C)C1 [Example 105, 4-[1-(2,3-Dimethylindazol-5-yl)-5-methyl-4-[(3R)-3-(methylamino)piperidine-1-carbonyl]imidazol-2-yl]-2-fluorobenzonitrile]
[2]
  IC50: < 100 nM
[3]
  IC50: < 100 nM

## Cc1c(C(=O)N2CC[C@H](N(C)C)C2)nc(-c2ccc(C#N)c(F)c2)n1-c1cc2c(Cl)n(C)nc2cc1F [Example 110, 4-[1-(3-Chloro-6-fluoro-2-methylindazol-5-yl)-4-[(3S)-3-(dimethylamino)pyrrolidine-1-carbonyl]-5-methylimidazol-2-yl]-2-fluorobenzonitrile]
[2]
  IC50: < 100 nM
[3]
  IC50: < 100 nM

## CN[C@H]1CCN(C(=O)c2nc(-c3ccc(C#N)c(F)c3)n(-c3cc4c(Cl)n(C)nc4cc3F)c2C)C1 [Example 111, 4-[1-(3-Chloro-6-fluoro-2-methylindazol-5-yl)-5-methyl-4-[(3S)-3-(methylamino)pyrrolidine-1-carbonyl]imidazol-2-yl]-2-fluorobenzonitrile]
[2]
  IC50: < 100 nM
[3]
  IC50: < 100 nM

## CN[C@H]1CCN(C(=O)c2cn(-c3ccc4nn(C)c(Cl)c4c3)c(-c3ccc(C#N)c(F)c3)n2)C1 [Example 113, 4-[1-(3-Chloro-2-methylindazol-5-yl)-4-[(3S)-3-(methylamino)pyrrolidine-1-carbonyl]imidazol-2-yl]-2-fluorobenzonitrile]
[2]
  IC50: < 100 nM
[3]
  IC50: < 100 nM

## Cn1nc2ccc(-n3cc(C(=O)N[C@@H]4CCCNC4)nc3-c3ccc(C#N)c(F)c3)cc2c1Cl [Example 114, 1-(3-Chloro-2-methylindazol-5-yl)-2-(4-cyano-3-fluorophenyl)-N-[(3R)-piperidin-3-yl]imidazole-4-carboxamide]
[2]
  IC50: < 100 nM
[3]
  IC50: < 100 nM

## CN[C@@H]1CCCN(C(=O)c2cn(-c3ccc4nn(C)c(Cl)c4c3)c(-c3ccc(C#N)c(F)c3)n2)C1 [Example 115, 4-[1-(3-Chloro-2-methylindazol-5-yl)-4-[(3R)-3-(methylamino)piperidine-1-carbonyl]imidazol-2-yl]-2-fluorobenzonitrile]
[2]
  IC50: < 100 nM
[3]
  IC50: < 100 nM

## CN[C@H]1CCCN(C(=O)c2cn(-c3ccc4nn(C)c(Cl)c4c3)c(-c3ccc(C#N)c(F)c3)n2)C1 [Example 116, 4-[1-(3-Chloro-2-methylindazol-5-yl)-4-[(3S)-3-(methylamino)piperidine-1-carbonyl]imidazol-2-yl]-2-fluorobenzonitrile]
[2]
  IC50: < 100 nM
[3]
  IC50: < 100 nM

## Cc1c(C(=O)N[C@@H]2CCCNC2)nc(-c2ccc(C#N)c(F)c2)n1-c1ccc2nn(C)c(Cl)c2c1 [Example 117, 1-(3-Chloro-2-methylindazol-5-yl)-2-(4-cyano-3-fluorophenyl)-5-methyl-N-[(3R)-piperidin-3-yl]imidazole-4-carboxamide]
[2]
  IC50: < 100 nM
[3]
  IC50: < 100 nM
